The test system of one assay is advanced solid tumors. The assay is described as follows: Phase I clinical trial of chiauranib in patients with advanced solid tumors. The assay is classed as in vivo, human. The note with it: for objective remission (complete remission CR and partial remission PR): 18 patients, 8 tumor types, oral once daily 10-65 mg dose escalation, RECIST 1.1. The protocol: Test drug: chiauranib capsules, strength: 5 mg, 25 mg, produced by Shenzhen Chipscreen Biosciences, Co., Ltd.
Dosage regimen: The starting dose was 10 mg/day. After the starting dose, according to the modified Fibonacci method, the patients were enrolled in order from low dose to high dose, and the set dose groups were 20 mg, 35 mg, 50 mg, 65 mg . . . dose groups, respectively, until the MTD was determined.
Chiauranib capsules were administered orally, once a day in the morning. Before knowing the analysis data of the effects of food on bioavailability, the drugs were administered on empty stomach.
Number of cases: 18 cases were enrolled.
The prescribed dose of Chiauranib capsules was administered orally on empty stomach once every day, and every 28 days was a treatment cycle; there was no stopping interval during the treatment cycles, and all enrolled patients received the test drug treatment until the disease progressed or intolerable toxicity appeared.
Efficacy evaluation: The clinical benefits of tumor treatment include:
Judgment criteria: The efficacy was evaluated according to the RECIST version 1.1 (2009) standard of solid tumors.
Safety assessment: physical examination, vital signs, ECOG physical score, blood routine, urine routine, 12-lead ECG, blood biochemistry, electrolytes, coagulation function, myocardial enzymes, troponin, TSH, FT3, FT4, amylase, echocardiography, 24-hour urine protein quantification (if necessary), and adverse events were included.
A total of 18 patients were enrolled in the trial, all of which were included in the FAS, SS, and PPS analysis sets. Among the 18 patients, 7 cases (38.9%) had colorectal cancer, 5 cases (27.8%) had non-small cell lung cancer, and 1 case each for gastric cancer, ovarian cancer, thyroid papillary carcinoma, diffuse large B-cell lymphoma, fibrosarcoma, and poorly differentiated renal carcinoma.

In assay [1] the test system is recurrent and refractory small cell lung cancer. The assay is described as follows: Phase Ib clinical trial of chiauranib alone in recurrent and refractory small cell lung cancer. The assay is classed as in vivo, human. The note with it: 50 mg/day QD oral. As to the method: Test drug: Chiauranib capsules, strength: 5 mg, 25 mg, produced by Shenzhen Chipscreen Biosciences, Co., Ltd.
Dosage regimen: Chiauranib capsules were administered at 50 mg/day, QD (no adjustments to body weight or body surface area), on an empty stomach every morning with water, swallowing whole capsules intact. Continuous administration for 28 days constituted a treatment cycle, and there was no interval between treatment cycles.
Number of cases: 25 cases were enrolled.
The test subjects were administered with 50 mg of Chiauranib capsules orally once a day, every 28 days as a treatment cycle, and there was no stopping interval during the treatment cycles. Throughout the trial period, all subjects continued treatment until any of the following conditions (whichever occurred first) occurred: disease progression, intolerable toxic response, death, withdrawal of informed consent, or loss to follow-up.
Efficacy evaluation: According to the RECIST1.1 standard, evaluation was performed in the baseline period and at the 4th weekend after treatment, and repeated every 8 weeks until the disease progressed. Tumor imaging examinations include CT or MRI of the neck, chest, whole abdomen, and pelvis. Examinations of other parts were carried out when necessary based on clinical indications. The same techniques and methods should be employed for the baseline of the lesion and follow-up assessment and measurement.
Safety assessment: physical examination, vital signs, ECOG fitness score, blood routine, urine routine, 12-lead ECG blood biochemistry, electrolytes, coagulation function, myocardial enzymes, troponin, TSH, FT3, FT4, amylase, echocardiography, 24-hour urine protein quantification (if necessary), and adverse events were included.

The test system of the next assay is SCLC. The note with it: combined with best supportive treatment; cited from earlier work.
Setting [2] is: 20 patients with efficacy evaluation.

Entries after “also recorded” stand apart in the source; their conditions may differ.

The values that follow come from patent US20220184055A1, “CHIAURANIB FOR TREATMENT OF SMALL CELL LUNG CANCER” (SHENZHEN CHIPSCREEN BIOSCIENCES CO., LTD., priority 2019, published 2022).

Turning to `COc1ccc2c(Oc3ccc4c(C(=O)Nc5ccccc5N)cccc4c3)ccnc2c1` [chiauranib, N-(2-aminophenyl)-6-(7-methoxyquinoline-4-oxo)-1-naphthylamide], in the assay with advanced solid tumors (8 common tumors, 18 patients evaluated), the “PR, number of patients” value turned out to be 0. In addition, the “objective remission (complete remission CR and partial remission PR)” value with advanced solid tumors was “no objective remission was observed; also recorded: no patients with objective remission were observed”. For the same compound, in the assay on advanced solid tumors (listed as Chiauranib), the “objective remission (complete remission CR and partial remission PR)” value is listed as “no cases with objective remission were observed”. In assay [1] (setting [2]), the “objective response rate (ORR) / PR (%)” value was 20%; the “patients whose target lesions were reduced by more than 30% from baseline, number” value turned out to be 5 patients; the “patients whose target lesions were reduced by more than 30% from baseline, percent” value is on record as 25%. The “best efficacy evaluation PR, number of patients” value in assay [1] (20 patients with efficacy evaluation of 25 enrolled, RECIST 1.1) turned out to be 4 patients.

For `CC[C@@]1(O)C(=O)OCc2c1cc1n(c2=O)Cc2cc3c(CN(C)C)c(O)ccc3nc2-1` [topotecan], the “overall survival, quality of life and improvement of symptoms versus best supportive treatment alone” value with SCLC is recorded as “significantly better”.
